Assays:
[1] = tested on: compulsive shopping (impulse control disorder, not otherwise specified); experiment: Example 1: case report, topiramate for compulsive shopping; format: in vivo, patient
Source text: (§1) Patient is a person with compulsive shopping (impulse control disorder, not otherwise specified), type II diabetes, and obesity. They have no other psychiatric disorders including mood or anxiety disorders.

word finding difficulty = experiment: Example 1: case report, atomoxetine added for word finding difficulty on topiramate; format: in vivo, patient; conditions: for word finding (patient description): person on topiramate
Source text: as §1

[2] = tested on: feeling "cloudy" and "disoriented"; experiment: Example 3: case report, atomoxetine added for feeling cloudy and disoriented on olanzapine, clonazepam, fiorinal; format: in vivo, patient
Procedure: Patient is a person with major depression, panic, generalized anxiety disorder, chronic headaches and fibromyalgia. They are on escitalopram 20 mg po qd, olanzapine 7.5 mg po qhs, clonazepam 0.5 mg po bid, and fiorinal prn. […] Atomoxetine was initiated at 18 mg po qd and increased to 25 mg po qd after 8 days.

[3] = tested on: feeling dull and having difficulty concentrating

Compound: CC1(C)O[C@@H]2[C@@H](CO[C@@]3(COS(N)(=O)=O)OC(C)(C)O[C@@H]23)O1 [topiramate]
- weight ([1]; higher dosages of topiramate): decreased weight
- urges and control over shopping behaviors ([1]; person, topiramate dose slowly increased): decreased urges and improved control over their shopping behaviors
- cognitive side effect ([1]; topiramate increased to 75 mg po qd): word finding difficulty which persisted

Compound: CNCC[C@@H](Oc1ccccc1C)c1ccccc1 [Atomoxetine, atomoxetine]
- tolerability of higher topiramate dose (word finding difficulty; atomoxetine 40 mg po qd, tolerated for 2 months): could tolerate a topiramate dose of 100 mg without difficulty
- word finding (patient description) (word finding difficulty; atomoxetine 25 mg po qd, over the next month): mild improvement in word finding
- word finding (patient description) (word finding difficulty; atomoxetine 40 mg po qd, over the following month): noticeable improvement in their word finding
- duration of stable effect ([2]; atomoxetine 25 mg po qd): 2 months
- tolerability of other medications in terms of cognitive functioning ([2]; on atomoxetine 25 mg po qd): able to tolerate their other medications without difficulty in terms of cognitive functioning
- concentration, attention, focus (patient description) ([2]; person on escitalopram, olanzapine, clonazepam, fiorinal, atomoxetine 18 mg po qd increased to 25 mg po qd after 8 days): improved concentration, attention, and “focus”
- improvement compared with 25 mg (patient description) ([3]; atomoxetine 40 mg po qd): did not have the same improvement as at 25 mg
- side effects ([3]; atomoxetine 40 mg po qd): felt dizzy and “spacy”
- concentration and side effects ([3]; atomoxetine alternating 25 mg and 40 mg po qd every other day): improved concentration without significant side effects
- tolerability of effective dose of alpraxolam (2-4 mg/day) ([3]; on atomoxetine alternating 25 mg and 40 mg po qd): without difficulties in concentration/cognitive functioning
- concentration and ability to work (patient description) ([3]; person on escitalopram 20 mg po qd and alprazolam, atomoxetine 25 mg po qd, within a few days): improved concentration and improved ability to work

From US20050096349A1, “Methods to prevent or ameliorate medication-, procedure-or stress-induced cognitive and speech dysfunction and methods to optimize cognitive and speech functioning” (priority 2003, published 2005)
